# Assays:
# [1] = test system: HepG2 cells; experiment: Dot blot array expression assay; settings: for Number of 27 unconfirmed or non-matching clones showing an expression change: two-fold threshold
# Experimental: The quality of the PCR reactions was assessed by agarose gel electrophoresis. Human genomic DNA (Clontech) and PCR products were robotically dotted in 100 nl aliquots onto positively-charged nylon membranes using the BioDot instrument (Cartesian Technologies, Inc.). After uv-crosslinking, the membranes were rinsed in 2× SSC and allowed to air-dry. Prior to addition of labeled cDNA probes, membranes were washed in boiling 1% SDS, rinsed with 6× SSC, and incubated in 5 mL of 42° C. Microhyb solution (Research Genetics) for 2 hr. Ten minutes prior to addition of the probes, the Microhyb solution was replaced with an equal amount of fresh 42° C. Microhyb solution containing denatured human Cot-1 DNA (Gibco BRL) and poly(dA) primer (Research Genetics) (both at final concentrations of 1 ng/μl).
# For each reverse transcription reaction, 2 μg of mRNA was incubated with oligo(dT) primer (200 ng/μl) at 70° C. for 10 minutes. Tubes were chilled and spun briefly. The following reagents (with the final concentrations in parentheses) were added: first strand buffer (1×), DTT (10 mM), dNTP mix (1 mM each of dATP, dGTP, dTTP), [α-^33P]dCTP (3.3 μCi/μl) and Superscript II Reverse Transcriptase (10 units/μL). The samples were kept at 37° C. for 1.5 hr. Unincorporated nucleotides were removed by spinning the reaction mixture through a G-50 column. […] Probe quality was assessed by electrophoresis on a 10% denaturing polyacrylamide minigel. Denatured probes were added directly to the Microhyb solution and hybridized overnight at 42° C. Membranes were washed twice under each of the following conditions: (1) 2× SSC/0.1% SDS at room temperature, 5 min; (2) 0.2× SSC/0.1% SDS at room temperature, 5 min; (3) 0.2× SSC/0.1% SDS at 42° C., 15 min, (4) 0.1× SSC/0.1% SDS at 68° C., 15 min. Membranes were then rinsed briefly in 2× SSC at room temperature, covered with Saran wrap, and exposed to storage phoshpor screens. After three days, screens were scanned using a Storm phosphorimager (Molecular Dynamics). Images were analyzed using ImageQuant software (Molecular Dynamics).
# We employed a rapid dot blot assay as a secondary screen for gene expression changes. We tested each of the unique clones against each of the three treatments. […] For these clones, the dot blot assay functioned not as a confirmation assay but as an initial screen for differential expression. Dot blots were prepared by robotically arraying subclone-derived PCR products in quadruplicate onto positively charged nylon membranes. […] In general, each dot consisted of over 80 ng of PCR product, as estimated by inspection of the PCR reactions run on agarose gels. This high quantity of DNA ensured that saturation of spots, with consequent loss of quantitation, would not occur. Spots of genomic DNA were included on each filter to allow normalization between control and treated sample intensities.
# [2] = test system: HepG2 cells; experiment: Annexin V assay for apoptosis; type: cell-based, human; settings: 20 mM acetaminophen, 16 mM caffeine, 100 mM thioacetamide, by 24 hr
# Experimental: Translocation of phosphatidyl serine to the cell membrane was measured by affinity binding to annexin V using the Apotest Biotin kit from NeXins Research B.V. (The Netherlands). HepG2 cells were cultured as above and plated into Cytostar-T scintillating microplates (Amersham) at 10^6 cells/well and grown for 3 days prior to treatment as above. Following treatment, 50 μl/well of 4 μg/ml annexin V-biotin in 2× Ca^2+ binding buffer was added. Wells with no annexin V-biotin were included as background controls. Following incubation for 20 min at room temperature, 50 μl/well of 0.5 μCi [^35S] streptavidin (Amersham) in 2× Ca^2+ binding buffer was added and incubated for 2 hrs at room temperature with gentle shaking. Plates were spun down at 1,100 rpm for 8 min and read on a Packard TopCount instrument (see e.g., Vermes et al., J. Immunol. Methods 185:81-93 (1995)).
# [3] = test system: HepG2 cells; experiment: Caspase-3 assay for apoptosis; type: cell-based, human; settings: 100 mM thioacetamide, 24 hr
# Experimental: Caspase-3 assay for apoptosis. Activation of caspase-3, an intracellular cysteine protease, was measured by cleavage of a caspase-specific peptide using the Caspase-3 Colorimetric Assay kit from R&D Systems. HepG2 cells were cultured and treated as above in T-75 tissue culture flasks. Following treatment, cells were scraped off and spun down. The assay was performed according to the kit instructions using 350 μl/flask of lysis buffer.
# [4] = test system: HepG2 cells; experiment: Cell morphology after toxicant treatment; settings: 24 hr, 20 mM acetaminophen, 16 mM caffeine or 100 mM thioacetamide
# Experimental: Depending on the desired exposure time, cell treatments began 3 or 4 days after splitting or plating. At this time, the cells were near or at confluency. […] Cell treatments were at 37° C.
# The general strategy used for identifying toxicant-induced gene expression changes is outlined in Table 2.
# [5] = 24 hr, 20 mM APAP, 16 mM CAF, 100 mM THI
smiles,measurement,setting,value
CC(=O)Nc1ccc(O)cc1 [acetaminophen],Number of 27 unconfirmed or non-matching clones showing an expression change,[1]; 24 hr,7
CC(=N)S [thioacetamide],"Fold change, down-regulation: EST (AA283846), clone 90-1",[1]; 24 hr treatments,7.7 fold
same,"Fold change, down-regulation: EST (AA805555), clone 83",[1]; 24 hr treatments,11.1 fold
same,"Fold change, down-regulation: EST (AI310515), clone 32-2",[1]; 24 hr treatments,9.1 fold
same,"Fold change, down-regulation: Lactate dehydrogenase A, clone A24-1",[1]; 24 hr treatments,5.0 fold
same,"Fold change, down-regulation: Pyruvate dehydrogenase E1-beta subunit, clone A123",[1]; 24 hr treatments,12.5 fold
same,"Fold change, down-regulation: Transforming growth factor-beta type III receptor, clone A155-6",[1]; 24 hr treatments,3.0 fold
same,"Fold change, up-regulation: Activating transcription factor 4, clone A108D",[1]; 24 hr treatments,3.8 fold
same,"Fold change, up-regulation: EST (N22016), clone AI24-6",[1]; 24 hr treatments,up
same,"Fold change, up-regulation: EST, similar to ubiquitin hydrolase, clone A130-3",[1]; 24 hr treatments,up
same,"Dot blot expression ratio (treated/control): 90-kDa heat-shock protein, clone 23",[1]; [5],0.96 n
same,"Dot blot expression ratio (treated/control): ABC transporter, clone 31-4",[1]; [5],0.28
same,"Dot blot expression ratio (treated/control): AH antigen, clone A136-1",[1]; [5],0.00
same,"Dot blot expression ratio (treated/control): Activating transcription factor 4, clone A108D",[1]; [5],3.77
same,"Dot blot expression ratio (treated/control): Apolipoprotein B-100, clone A124-1",[1]; [5],0.76
same,"Dot blot expression ratio (treated/control): Atopy related autoantigen CALC, clone A182-1",[1]; [5],0.66
same,"Dot blot expression ratio (treated/control): Centromere protein E (CENPE), clone A187-5",[1]; [5],0.65
same,"Dot blot expression ratio (treated/control): Centromere protein F (400 kD) (CENPF kinetochore protein), clone A136",[1]; [5],1.98
same,"Dot blot expression ratio (treated/control): Cu/Zn superoxide dismutase (SOD), clone A94-4",[1]; [5],0.91
same,"Dot blot expression ratio (treated/control): DB1, clone A176-3",[1]; [5],0.36
same,"Dot blot expression ratio (treated/control): DNA topoisomerase II binding protein, clone A172",[1]; [5],0.49
same,"Dot blot expression ratio (treated/control): E1B 19K/Bcl-2-binding protein Nip3, clone 81-6",[1]; [5],0.23 c
same,"Dot blot expression ratio (treated/control): EST (AA283846), clone 90-1",[1]; [5],0.13 c
same,"Dot blot expression ratio (treated/control): EST (AA430551), clone A160-5",[1]; [5],0.17
same,"Dot blot expression ratio (treated/control): EST (AA581887), clone 102-2",[1]; [5],1.80 n
same,"Dot blot expression ratio (treated/control): EST (AA581887), clone A102-1",[1]; [5],1.78 n
same,"Dot blot expression ratio (treated/control): EST (AA805555), clone 83",[1]; [5],0.09 c
same,"Dot blot expression ratio (treated/control): EST (AC007400), clone A95-1",[1]; [5],1.07
same,"Dot blot expression ratio (treated/control): EST (AI049999), clone A104-5",[1]; [5],0.89
same,"Dot blot expression ratio (treated/control): EST (AI310515), clone 32-2",[1]; [5],0.11 c
same,"Dot blot expression ratio (treated/control): EST (N22016), clone A124-6",[1]; [5],up
same,"Dot blot expression ratio (treated/control): EST (N26592), clone 101",[1]; [5],0.26 c
same,"Dot blot expression ratio (treated/control): EST (N39662), clone A99-1",[1]; [5],0.50
same,"Dot blot expression ratio (treated/control): EST (W44772), clone 87",[1]; [5],1.11 n
same,"Dot blot expression ratio (treated/control): EST, bithoraxoid-like protein, clone A183-1",[1]; [5],0.42
same,"Dot blot expression ratio (treated/control): EST, similar to Long-chain acyl-coenzyme A synthetase, clone A105-7",[1]; [5],0.90
same,"Dot blot expression ratio (treated/control): EST, similar to Ubiquinol cytochrome C reductase core protein 2, clone 93",[1]; [5],0.38 c
same,"Dot blot expression ratio (treated/control): EST, similar to arachidonate 15-lipoxygenase, clone 84",[1]; [5],0.75 n
same,"Dot blot expression ratio (treated/control): EST, similar to ubiquitin hydrolase, clone A130-3",[1]; [5],up
same,"Dot blot expression ratio (treated/control): Esterase D/formylglutathione hydrolase, clone 24",[1]; [5],0.31 c
same,"Dot blot expression ratio (treated/control): G1 to S phasetransition 1 (GSPT1), clone 103-2",[1]; [5],1.57 n
same,"Dot blot expression ratio (treated/control): Glucose transporter pseudogene, clone 23-1",[1]; [5],0.34
same,"Dot blot expression ratio (treated/control): High mobility group 2 protein (HMG-2), clone A111-8",[1]; [5],1.12
same,"Dot blot expression ratio (treated/control): Human Alu-Sc subfamily consensus sequence, clone A96-4",[1]; [5],0.84
same,"Dot blot expression ratio (treated/control): Human transposon-like element mRNA, clone A135-3",[1]; [5],0.59
same,"Dot blot expression ratio (treated/control): Interleukin 6 signal transducer (gp130, oncostatin M receptor), clone 65-1",[1]; [5],0.96 n
same,"Dot blot expression ratio (treated/control): Ku autoimmune antigen, clone 27-2",[1]; [5],0.47 c
same,"Dot blot expression ratio (treated/control): Lactate dehydrogenase A, clone A24-1",[1]; [5],0.20 c
same,"Dot blot expression ratio (treated/control): Lipoprotein-associated coagulation inhibitor, clone A94-3",[1]; [5],0.27 c
same,"Dot blot expression ratio (treated/control): Liver microsomal UDP-glucuronosyltransferase (UDPGT), clone A128-7",[1]; [5],0.70
same,"Dot blot expression ratio (treated/control): Lsm5 protein, clone A115-5",[1]; [5],0.39
same,"Dot blot expression ratio (treated/control): MEGF9, clone 74",[1]; [5],0.96 n
same,"Dot blot expression ratio (treated/control): Myristoyl CoA:protein N-myristoyltransferase, clone 82",[1]; [5],0.41
same,"Dot blot expression ratio (treated/control): NADH dehydrogenase subunit 2, clone A131-1",[1]; [5],1.45
same,"Dot blot expression ratio (treated/control): Nucleosome assembly protein 1-1ike 1 (NAP1L1), clone 20-2",[1]; [5],0.92 n
same,"Dot blot expression ratio (treated/control): PPP1R5 gene, clone 30-5",[1]; [5],0.17 c
same,"Dot blot expression ratio (treated/control): T-complex polypeptide 1, clone 21-2",[1]; [5],1.03
same,"Dot blot expression ratio (treated/control): Transforming growth factor-beta type III receptor, clone A155-6",[1]; [5],0.33
same,"Dot blot expression ratio (treated/control): cAMP-responsive enhancer binding protein, alt. spliced (CREB327), clone 98",[1]; [5],0.70 n
same,"Dot blot expression ratio (treated/control): procollagen-lysine 2-oxoglutarate 5-dioxygenase 2, clone A185",[1]; [5],0.36
same,"Dot blot expression ratio (treated/control): pyruvate dehydrogenase El-beta subunit, clone A123",[1]; [5],0.08
same,Number of 27 unconfirmed or non-matching clones showing an expression change,[1]; 24 hr,9
same,"Apoptosis, annexin V assay",[2],induces the greatest response
same,Caspase-3 activation,[3],significant activation
same,Cell morphology of treated cells,[4],somewhat dense and grainy

# Source: US20020110808A1, “Toxicant-induced differential gene expression” (priority 2000, published 2002)
